“Also recorded” adds a separate entry of the source. Square brackets hold non-standard residues; d marks the D form. Peptide text beside a SMILES is read from it. Nle = CCCC[C@H](N)C(=O)O
Columns and labels:
[1] = system: tangle-like structures; experiment: AT8 immunostaining of cultured rat hippocampal slices; type: cell-based; conditions: for number of ZPAD-induced tangles in the presence of the inhibitor: hippocampal slices, ZPAD plus inhibitor, 6 days
Protocol: Cultured slices were stained with anti-phosphorylated tau antibody AT8.
(§1) Cultures of hippocampal slices were prepared from 10-12 days old rats.
Cultured rat hippocampal slices of 12 days in vitro were treated with 20 μM pravastatin for 6 days and processed from immunohistological studies with the monoclonal antibody AT8. The subiculum, CA1 field, and CA3 field of the hippocampus were examined by photomicroscopy.

[2] = system: TGF-beta; experiment: RT-PCR/northern blot of cytokine mRNA in cultured hippocampal slices; type: cell-based
[3] = system: reactive microglia; experiment: ED-1 immunocytochemistry of cultured brain explants; type: cell-based, rat; conditions: 6 days
Protocol: Immunocytochemical studies using the monoclonal antibody ED-1 that recognizes reactive microglia were used at 1:1000 dilution following standard immunohistochemical procedures. Microglial activation was determined by measuring cell numbers, optical density, and size of cell bodies using the program NIH Image. Brain tissue was cultured for 12 days and treated with ZPAD (20 μM) in the presence or absence of PD98059 (50 μM) for 6 days (FIG. 18). Cultured explants were then sliced and stained by using monoclonal antibody ED-1 which recognizes reactive microglia, a classical marker of inflammation. […] Cultured brain explants were then sliced and stained by using monoclonal antibody ED-1, a classical marker for reactive microglia and macrophages.

[4] = system: MAPK (ERK1/2); experiment: Immunoblot with anti-active MAPK in cultured hippocampal slices; type: cell-based; conditions: 6 days
[5] = system: APP; experiment: Immunoblot of APP in hippocampal slices, mevastatin plus kinase inhibitors (Example 8); type: cell-based
[6] = system: tau; experiment: Immunoblot of tau (tau-1, AT8) in cultured rat hippocampal slices; type: cell-based
Protocol: Immunoblotting was carried out by using anti-non phosphorylated tau antibody, tau-1 or anti-phosphorylated tau antibody, AT8.
as §1

[7] = system: p35; experiment: Immunoblot of p35/p25 in cultured rat hippocampal slices; type: cell-based; conditions: 6 days
Protocol: Hippocampal slices were collected, homogenized, and subjected to SDS-PAGE electrophoresis. Immunoblots were then probed with anti-p35 sera that were raised against the C-terminal domain of p35.
as §1

[8] = system: tau protein; conditions: literature report; cited from earlier work
[9] = system: cathepsin D; conditions: literature report; cited from earlier work
[10] = system: p35; experiment: Immunoblot of p35 in hippocampal slices from apoE-knockout mice; type: cell-based; conditions: apoE-knockout mouse slices; mevastatin plus agent
[11] = system: amyloid precursor protein (APP); experiment: Immunoblot of APP (antibody 22C11) in hippocampal slices from apoE-knockout mice; type: cell-based, mouse
From the text: Tissues were processed for immunoblotting and assessed by monoclonal antibody 22C11, which recognizes the N-terminal domain of amyloid precursor protein (APP). […] Whether this new product is due to proteolysis or changes in protein maturation is under investigation.

[12] = system: IL-10; experiment: RT-PCR/northern blot of cytokine mRNA in cultured hippocampal slices; type: cell-based; conditions: ZPAD 20 μM, mevastatin 20 μM
[13] = system: TNF-alpha; experiment: as above; type: cell-based; conditions: mevastatin 20 μM
From the text: FIG. 17. Messenger RNA levels of TNF-alpha are increased by interruption of cholesterol synthesis.
Levels of mRNA for the cytokines were quantified by RT-PCR and northern blot analysis, following protocols outlined in the RT-PCR kit (Ambion Inc.).

[14] = system: microglia; experiment: CD11b immunostaining of hippocampus of rats injected daily with statins; type: in vivo, rat; conditions: male Sprague-Dawley rats, 10 mg/kg i.p. daily for 39 days
Protocol: Brains were then removed, postfixed in perfusate for 5-6 hors, and cryoprotected in 15% sucrose/PB followed by 30% sucrose/PB (12-24 hours each) at 4° C. Coronal sections were cut at 20-30 μm by using a freezing microtome and collected into PBS. Immunostaining was performed as described for the in vitro experiments using monoclonal antibody CD11b that reacts with both active and non-active microglia.

With `COc1cccc(-c2cc(=O)c3ccccc3o2)c1N` [PD98059, 2-2(Amino-3-methoxyphenyl)-4H-1-benzopyran-4-one] the “number of ZPAD-induced tangles in the presence of the inhibitor” value [1] was “significantly reduced”, the “mRNA levels for certain cytokines (FIG. 16)” value ([2]; PD98059 treatment) was “decreased” and the “ZPAD-induced reaction of microglia with co-application of the inhibitor” value ([3]; ZPAD 20 μM plus PD98059 50 μM) was “completely blocked”. The “reaction of microglia (ED-1 staining)” value ([3]; ZPAD 20 μM, mevastatin 20 μM or PD98059 50 μM alone) was “did not induce evident change in microglia”, the “MAPK activation by mevastatin and ZPAD in the presence of the inhibitor” value [4] was “blocked” and the “effects of mevastatin on APP in the presence of the inhibitor” value [5] was “partially blocked”.

With `CCCC[C@@H](C=O)NC(=O)[C@H](CC(C)C)NC(=O)[C@H](CC(C)C)NC(C)=O` [calpain inhibitor I, N-acetyl-leucyl-leucyl-norleucinal] (Ac-Leu-Leu-[Nle]-aldehyde) the “number of ZPAD-induced tangles in the presence of the inhibitor” value [1] was “significantly reduced”, the “ZPAD-induced tau fragments (tau 15-35 / tau 29 and tau 40) in the presence of the inhibitor” value ([6]; ZPAD plus inhibitor, 6 days, 2 separate experiments) was “almost completely blocked” and the “ZPAD-induced conversion of p35 to p25 in the presence of the inhibitor” value ([7]; ZPAD plus inhibitor) was “significantly inhibited”.

For `CCN(CC)CCCC(C)Nc1ccnc2cc(Cl)ccc12` (stereo not drawn) [chloroquine], the “29 kDa tau fragment (tau 29)” value [8] is listed as “delayed appearance of a 29 kDa fragment” and the “enzymatically active cathepsin D” value [9] is listed as “increases in enzymatically active cathepsin D”.

In the case of `CC(O)(CCO)CC(=O)O` (stereo not drawn) [mevalonate], the “mevastatin-induced down regulation of p35 in the presence of the agent” value [10] is reported as “completely blocked” and the “effects of mevastatin on APP in the presence of the agent” value ([11]; mevastatin plus agent) is reported as “completely blocked”.

In the case of `CC[C@H](C)C(=O)O[C@H]1CCC=C2C=C[C@H](C)[C@H](CC[C@@H]3C[C@@H](O)CC(=O)O3)[C@H]21` [mevastatin], the “induction of AT8-immunoreactive tangle-like structures” value ([1]; rat hippocampal slices, agent applied for 6 days) is reported as “moderately increased; also recorded: resulted in tangle-like structures”, the “phosphorylated 33 kDa tau breakdown products (AT8 blot)” value ([6]; rat hippocampal slices) is reported as “markedly enhanced” and the “levels of p35” value ([7]; hippocampal slices) is reported as “significant decreases; also recorded: rapidly and markedly decreased; also recorded: reduced”. The “mRNA levels of TGF-beta” value ([2]; ZPAD 20 μM, mevastatin 20 μM) was “increased”, the “mRNA levels of IL-10” value [12] was “increased” and the “mRNA level of TNF-alpha” value [13] was “markedly increase”. For the same compound, the “activated MAPK (ERK1/2)” value ([4]; hippocampal slices) was “activated; also recorded: increased; also recorded: activation”, the “levels of full length APP” value ([11]; mevastatin treatment) was “increased levels” and the “novel APP band with molecular weight slightly lower than native APP” value ([11]; mevastatin treatment) was “induced a novel band”. The “levels of full length APP” value ([11]; mevastatin treatment, listed as Mevastatin) was “markedly increased” and the microglial reactions [14] was “induced; also recorded: Induction of microglial reactions”.

Reference: patent publication US6803233B2, “Model for Alzheimer's disease and other neurodegenerative diseases” (priority 2000, dated 2004)
